# Assay results taken from patent publication US8653304B2, “2,3-dihydro-1H-indene-2-yl urea derivative and pharmaceutical application of same” (Toray Industries, Inc., priority 2009, dated 2014).
# What was measured:
# TNFα production = assay: Cytokine production suppressing activity using human whole blood (LPS stimulation); type: cell-based; conditions: LPS 200 ng/mL, 37° C., 5 hours
# Procedure: Using human whole blood, the inhibitory action of Compound (I) on the TNFα production by LPS stimulation was studied by a method partially modified from the method described in Journal of Medicinal Chemistry (2003, Vol. 46, pp. 4676-4686).
# A solution of each test compound in 100% DMSO and human blood were mixed in a 96-well flat-bottom plate. Thereafter, LPS (Final Concentration: 200 ng/mL) was added, and the resulting mixture was allowed to react at 37° C. for 5 hours (the final concentration of DMSO was 0.2%). After the reaction, the resultant was centrifuged for 20 minutes at room temperature, and the supernatant was collected. For the measurement of the TNFα amount in the supernatant, a human cytokine kit (CIS bio international) was used. As a comparative control compound, Comparative Compound 2 was used.
# human p38 MAPK α = human p38 MAPK α (Homo sapiens (Human), UniProt Q16539); assay: Evaluation of p38 MAPK inhibitory activity (Alpha Screen, ATF2 phosphorylation); type: biochemical; conditions: p38α/SAPK2a 1.5 nM, ATP 100 μM, biotinylated ATF2 30 nM
# Chain of human p38 MAPK α (Q16539 whole entry): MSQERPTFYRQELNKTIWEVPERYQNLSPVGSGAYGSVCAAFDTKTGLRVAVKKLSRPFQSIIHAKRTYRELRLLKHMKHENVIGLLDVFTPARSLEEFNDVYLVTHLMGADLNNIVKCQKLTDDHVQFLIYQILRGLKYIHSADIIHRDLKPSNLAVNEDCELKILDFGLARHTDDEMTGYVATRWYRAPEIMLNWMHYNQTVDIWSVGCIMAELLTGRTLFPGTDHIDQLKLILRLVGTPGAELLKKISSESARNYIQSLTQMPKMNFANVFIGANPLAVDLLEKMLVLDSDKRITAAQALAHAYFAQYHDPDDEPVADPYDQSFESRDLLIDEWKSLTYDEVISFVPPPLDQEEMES
# Procedure: Using human p38 MAPK α, the p38 MAPK inhibitory activity of Compound (I) was studied by a method partially modified from the method described in Current Medicinal Chemistry (2004, No. 11, pp. 721-730).
# A solution of each test compound solution in 100% DMSO and a p38α/SAPK2a solution (Final Concentration: 1.5 nM) (Invitrogen) were added to a 384-well plate, and then the plate was incubated at room temperature in a dark place for 1 hour. Thereafter, ATP (Final Concentration: 100 μM), which is a phosphate donor, and biotinylated ATF2 (Final Concentration: 30 nM) (upstate), which is a substrate, were added, and the resulting mixture was allowed to react at room temperature in a dark place for 1 hour (the final concentration of DMSO was 0.25%). After the reaction, an anti-phosphorylated ATF2 antibody (Final Concentration: 1 nM) (Cell Signaling), anti-IgG acceptor beads (Final Concentration: 20 μg/mL) (PerkinElmer) and streptavidin donor beads (Final Concentration: 20 μg/mL) (PerkinElmer) were added, and the resultant was incubated at room temperature in a dark place for 1 hour. Using a microplate analyzer (Fusion-α, Packard) in Alpha Screen method (Amplified Luminescent Proximity Homogeneous Assay), the light emission was detected. The IC50 value of each compound was calculated by sigmoidal dose-response regression using Prism 4.02 (GraphPad Software, Inc.).
# [1] = Pharmacokinetic evaluation in mouse (oral); type: in vivo; conditions: male; BALB/c mouse, oral 0.8 mg/kg, plasma
# Procedure: Each test compound was dissolved in 10% HP-β-CD (Nihon Shokuhin Kako Co., Ltd.) to prepare a solution to be administered (0.08 mg/mL, as a solution to be administered for oral administration). To each BALB/c mouse (male, 7-week old, Charles River Laboratories Japan, Inc.), each compound was orally administered at a dose of 0.8 mg/kg. Blood was collected from the jugular vein or heart with time up to 24 hours after the administration. The obtained blood was centrifuged to collect blood plasma. The blood plasma was pretreated by methanol extraction method, and the concentration of the compound was analyzed by LC/MS/MS (ESI positive mode).
# In this table, Cmax represents a maximum plasma concentration; and AUC0-∞ represents an area under the curve of the plasma concentration of the compound from after the compound administration to infinite time.
# ICR mouse = assay: Evaluation of hepatotoxicity in mouse (plasma AST); type: in vivo; conditions: oral 500 mg/kg, plasma on the day after administration
# Procedure: Compound (I) was suspended in 0.5% methylcellulose (Wako Pure Chemical Industries, Ltd.) to prepare a 50 mg/mL solution to be administered. To each ICR mouse (male, 7-week old, Charles River Laboratories Japan, Inc.), each compound was orally administered at a dose of 500 mg/kg. On the day after the administration, blood was collected from the posterior vena cava, and the obtained blood was centrifuged to collect blood plasma. AST (aspartate aminotransferase) value, which is a marker of hepatic disorders in blood plasma, was measured with a biochemistry automatic analyzer (Hitachi 7070, Hitachi, Ltd.). Comparative Compound 4 was suspended in 0.5% sodium carboxymethylcellulose (Wako Pure Chemical Industries, Ltd.) before use.
IC50 (TNFα production),IC50 (human p38 MAPK α),SMILES,also measured
235 nM,–,"COc1c(CO)cc(C(C)(C)C)cc1NC(=O)N[C@@H]1Cc2c(F)cccc2[C@@H]1O [Compound 3, 1-(5-tert-butyl-3-(hydroxymethyl)-2-methoxyphenyl)-3-((1S,2R)-4-fluoro-1-hydroxy-2,3-dihydro-1H-indene-2-yl)urea]",–
109 nM,24 nM,"COc1cccc2c1C[C@@H](NC(=O)Nc1cc(C(C)(C)C)cc([C@H](O)C(F)(F)F)c1OC)[C@H]2O (single isomer, unassigned) [Compound 52b]",–
5190 nM,–,"COc1c(CO)cc(C(C)(C)C)cc1NC(=O)NC1Cc2ccccc2C1 [Comparative Compound 2, 1-(5-tert-butyl-3-(hydroxymethyl)-2-methoxyphenyl)-3-(2,3-dihydro-1H-indene-2-yl)urea]",AUC(0-inf) [1]: 116 ng·h/mL; Cmax [1]: 79.7 ng/mL
–,18 nM,"COc1c(NC(=O)N[C@@H]2Cc3ccccc3[C@@H]2O)cc(C(C)(C)C)cc1C(N)C(F)(F)F (stereo partly drawn) [Compound 47b, 1-(3-(1-amino-2,2,2-trifluoroethyl)-5-tert-butyl-2-methoxyphenyl)-3-((1S,2R)-1-hydroxy-2,3-dihydro-1H-indene-2-yl)urea]",–
182 nM,–,"COc1c(NC(=O)N[C@H]2Cc3ccc(F)cc3[C@H]2O)cc(C(C)(C)C)cc1[C@@H](O)C(F)(F)F [Compound 60b, 1-(5-tert-butyl-2-methoxy-3-((R)-2,2,2-trifluoro-1-hydroxyethyl)phenyl)-3-(cis-6-fluoro-1-hydroxy-2,3-dihydro-1H-indene-2-yl)urea]",–

# The next lines start with the compound.
SMILES,IC50 (TNFα production),IC50 (human p38 MAPK α),also measured
"COc1c(NC(=O)NC2Cc3ccccc3C2)cc(C(C)(C)C)cc1C(O)C(F)(F)F (stereo not drawn) [Comparative Compound 1, 1-(5-tert-butyl-2-methoxy-3-(2,2,2-trifluoro-1-hydroxyethyl)phenyl)-3-(2,3-dihydro-1H-indene-2-yl)urea, reference compound]",–,117 nM,–
"CCC(C)(C)c1cc(NC(=O)N[C@@H]2Cc3ccccc3[C@@H]2O)c(OC)c([C@H](O)C(F)(F)F)c1 (single isomer, unassigned) [Compound 123b]",–,29 nM,–
"Cc1ccc(-n2nc(C(C)(C)C)cc2NC(=O)Nc2ccc(OCCN3CCOCC3)c3ccccc23)cc1 [Comparative Compound 4, 1-(3-tert-butyl-1-p-tolyl-1H-pyrazol-5-yl)-3-(4-(2-morpholinoethoxy)naphthalen-1-yl)urea, reference compound]",–,–,AST value (ICR mouse): 145 U/L
"C[S+]([O-])c1ccc(-c2nc(-c3ccncc3)c(-c3ccc(F)cc3)[nH]2)cc1 (stereo not drawn) [Comparative Compound 5, 4-(4-(4-fluorophenyl)-2-(4-(methylsulfinyl)phenyl)-1H-imidazol-5-yl)pyridine]",–,–,AUC(0-inf) [1]: 59.8 ng·h/mL; Cmax [1]: 11.4 ng/mL
"COc1c(NC(=O)N[C@@H]2Cc3c(F)cccc3[C@@H]2O)cc(N2CCOCC2)cc1[C@H](O)C(F)(F)F (single isomer, unassigned) [Compound 84b]",115 nM,16 nM,–
